Measurements from ChEMBL document CHEMBL4007466, “Bioactive drimane sesquiterpenoids and aromatic glycosides from Cinnamosma fragrans” (Bioorg Med Chem Lett, 2017).

Tested on: MCF7
Assay: Antiproliferative activity against human MCF7 cells by SRB assay
Assay type: functional, cell-based

Compound | IC50
COc1cc(O[C@@H]2O[C@H](CO[C@@H]3OC[C@](O)(CO)[C@H]3O)[C@@H](O)[C@H](O)[C@H]2O)cc(OC)c1OC | > 20 µM
CC(=O)O[C@@H]1C=C([C@H]2O[C@@H]3OC(O)C4=C[C@@H](OC(C)=O)[C@H]5C(C)(C)CCC[C@]5(C)[C@]43O2)[C@](O)(C=O)[C@@]2(C)CCCC(C)(C)[C@H]12 (some centres undefined) | 0.6 µM
CC1=C(C=O)[C@@]2(C)CCCC(C)(C)[C@@H]2CC1=O | > 20 µM
CC(=O)O[C@@H]1C=C2C(=O)O[C@@H]3O[C@H](C4=C[C@@H](OC(C)=O)[C@H]5C(C)(C)CCC[C@]5(C)C4=O)O[C@@]23[C@@]2(C)CCCC(C)(C)[C@H]12 | 3.7 µM
COc1ccc(O[C@@H]2O[C@H](CO[C@@H]3OC[C@](O)(CO)[C@H]3O)[C@@H](O)[C@H](O)[C@H]2O)cc1OC | > 20 µM
CC(=O)O[C@@H]1C=C([C@H]2O[C@@H]3OC(=O)C4=C[C@@H](OC(C)=O)[C@H]5C(C)(C)CCC[C@]5(C)[C@]43O2)[C@](O)(C=O)[C@@]2(C)CCCC(C)(C)[C@H]12 | 2 µM
C[C@@H]1O[C@@H](OC[C@H]2O[C@@H](OC(=O)[C@@]3(C)CCC[C@]4(C)C5=C(COC5=O)[C@@H](O)C[C@@H]34)[C@H](O)[C@@H](O)[C@@H]2O)[C@H](O)[C@H](O)[C@H]1O | > 20 µM
Cc1ccc2c(c1)C(C(C)C)CCC2=O (centres undefined) | > 20 µM
CC(=O)O[C@@H]1C=C(C=O)[C@@](O)(C=O)[C@@]2(C)CCCC(C)(C)[C@H]12 | 1.6 µM
CC[C@@]1(O)C(=O)OCc2c1cc1n(c2=O)Cc2cc3ccccc3nc2-1 [CAMPTOTHECIN] | 0.03 µM
CC1(C)CCC[C@]2(C)[C@H]3COC(=O)C3=CC[C@@H]12 [CINNAMOLIDE] | > 20 µM
CC(=O)O[C@@H]1C=C2C(=O)OC[C@]2(O)[C@@]2(C)CCCC(C)(C)[C@H]12 [CINNAMOSMOLIDE] | 1.3 µM
O=Cc1ccc(O[C@@H]2O[C@H](CO)[C@@H](O)[C@@H](O)[C@H]2O)cc1 [HELICIDE] | > 20 µM
CC1(C)CCC[C@]2(C)[C@@H](C=O)C(C=O)=CC[C@@H]12 [POLYGODIAL] | 12.4 µM
